Reference: patent publication US20250170093A1, “ENDOPLASMIC RETICULUM PROTEIN HYOU1-BINDING COMPOUND FOR INHIBITING ENDOPLASMIC RETICULUM-MITOCHONDRIAL INTERACTION AND USES THEREOF” (UIF (University Industry Foundation), Yonsei Univeristy, priority 2023, published 2025)

What was measured:
HUVECs [1] = test: Transmission electron microscopy of ER and mitochondria in HUVECs; type: cell-based, human; settings: CTS 5 μM; control group 61%
Text: First, HUVECs were imaged by transmission electron microscopy (TEM) to visualize the ER and mitochondria, and the ER-mitochondrial distance was observed. […] Increased contact between the ER and mitochondria can lead to cellular stress and dysfunction. CTS can help restore cellular homeostasis and prevent adverse effects associated with increased ER-mitochondrial interactions.

p62, LC3B-II and α-SMA = test: Western blot of autophagy and smooth muscle cell proliferation markers in PAH cell model; type: cell-based, human; settings: TGF-β-stimulated PASMCs, vs control group
Procedure: Human pulmonary artery smooth muscle cells (PASMCs; 4-8 passages) were cultured in an SmGM2 basal medium (Lonza, CC-3181) containing 5% FBS, supplements (Lonza, CC-4149) and 1% antibiotics.
The cells were cultured in a chamber-type cell culture slide. When they reached 70% confluence, the medium was replaced with a medium containing 0.5% FBS and the cells were incubated for 4 hours to inhibit cell proliferation. The cells were then treated with DMSO and CTS (5 μM) while simultaneously stimulating with TGF-β (5 ng/ml) for 24 hours. The level of p62, LC3 and α-SMA was confirmed by western blot.

HYOU1 = target: T1, HYOU1 (Homo sapiens, UniProt Q9Y4L1); test: DARTS-western analysis in HUVEC lysate; type: binding; settings: dose-dependent, read-out: EC50 of resistance to degradation by Pronase
T1 construct: endogenous in cells; host or cells: HUVEC
T1 sequence (Q9Y4L1 33-999): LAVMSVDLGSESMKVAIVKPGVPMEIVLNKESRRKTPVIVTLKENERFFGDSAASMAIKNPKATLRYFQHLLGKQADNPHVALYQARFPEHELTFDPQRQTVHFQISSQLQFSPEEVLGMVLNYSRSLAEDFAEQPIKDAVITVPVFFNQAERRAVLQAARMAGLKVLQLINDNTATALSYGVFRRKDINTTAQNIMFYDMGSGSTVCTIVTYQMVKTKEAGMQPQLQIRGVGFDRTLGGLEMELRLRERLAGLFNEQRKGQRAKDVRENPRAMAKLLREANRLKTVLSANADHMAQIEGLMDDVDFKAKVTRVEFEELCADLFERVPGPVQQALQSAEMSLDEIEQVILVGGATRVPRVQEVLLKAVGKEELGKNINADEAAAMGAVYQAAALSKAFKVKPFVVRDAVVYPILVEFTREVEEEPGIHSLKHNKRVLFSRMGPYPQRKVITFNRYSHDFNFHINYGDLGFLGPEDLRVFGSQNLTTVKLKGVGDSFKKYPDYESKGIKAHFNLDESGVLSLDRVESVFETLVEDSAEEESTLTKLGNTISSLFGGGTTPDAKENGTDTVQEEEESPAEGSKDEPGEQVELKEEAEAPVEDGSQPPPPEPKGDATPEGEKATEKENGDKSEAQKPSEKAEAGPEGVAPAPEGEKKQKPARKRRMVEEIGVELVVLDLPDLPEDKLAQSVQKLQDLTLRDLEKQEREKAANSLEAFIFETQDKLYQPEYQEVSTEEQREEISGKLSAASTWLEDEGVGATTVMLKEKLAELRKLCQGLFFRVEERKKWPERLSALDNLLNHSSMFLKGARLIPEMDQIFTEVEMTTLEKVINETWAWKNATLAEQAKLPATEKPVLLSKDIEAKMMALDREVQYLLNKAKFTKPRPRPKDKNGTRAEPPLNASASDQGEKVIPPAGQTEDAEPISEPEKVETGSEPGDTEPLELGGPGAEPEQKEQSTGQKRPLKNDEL
Procedure: HepG2 or HUVECs (1×10^7 cells) were lysed by homogenization in PBS buffer containing a protease/phosphatase inhibitor cocktail (½ tablet, 25 mL; Pierce), and the concentration of total proteins was determined by BCA assay. All steps were performed on ice to avoid premature protein degradation. The cell lysate (final protein concentration: 1 mg/mL, 100 μL) was aliquoted into a 1.5-mL tube and incubated with 0.01 to 10 μM CTS (in 1 μL DMSO) for 3 hours at 4° C. with gentle stirring. Pronase (non-specific protease) was then added (final concentration: 1 μg/mL) and reaction was performed for 10 minutes. After adding a 6×SDS buffer, the Pronase reaction was stopped by heating for 7 minutes.
DARTS-western analysis was used to validate HYOU1 as a target protein of CTS in the lysate of HUVECs. […] In addition, […] to degradation by Pronase (protease) in a dose-dependent manner, with an EC50 value calculated to be about 1 μM (FIG. 5B).

[2] = tested on: ApoE−/− mice fed a high-cholesterol diet; test: Atherosclerosis-induced animal model (ApoE-/- mice fed a high-cholesterol diet); type: in vivo, mouse; settings: 20 mg/kg intraperitoneally every 2 days for 8 weeks
Procedure: Mouse experiments were performed in accordance with the ethical guidelines approved by the Institutional Animal Care and Use Committee of Yonsei University (IACUC-A-202208-1519-01). ApoE−/− mice were provided by Dr. Goo Taeg Oh (Ewha Womans University, Korea) and were housed in a pathogen-free system with a 12-hour light-dark cycle with free access to water and food. The mice were fed a high-cholesterol diet from 6 weeks after birth until the end of the experiment. At the end of the experiment, the mice were anesthetized with Avertin (2,2,2-tribromoethanol) and perfused with PBS through the left ventricle.
The outer membrane fat of the aorta isolated from the sacrificed animals was removed, dissected longitudinally, and fixed on a white silicone plate. After overnight fixation with 4% PFA, aortas were stained overnight with Oil Red O and washed with PBS. The heart and liver were then harvested and fixed overnight in 4% PFA and then placed in a 30% sucrose solution. After preparing tissues and preserving through cryopreservation (OCT) or paraffin embedding, sections were prepared for histologic analysis. For analysis of atherosclerotic lesions, the bottom of the heart, including the proximal aorta, was embedded in OCT medium, stained using the Oil Red O stain, and then quantified using the Image J software. […]

HUVECs [3] = test: Mitochondrial calcium assay (Rhod-2) in HUVECs; type: cell-based, human; settings: pretreated with xestospongin C, then treated with oxLDL
Procedure: To measure calcium content in mitochondria or cytosol, HUVECs were cultured overnight at a density of 1.5×10^4 cells/well in a chamber slide (8-well) and incubated with Rhod-2/AM (2 μM) (Invitrogen, R1244) or Fluo-4/AM (1 μM) (Invitrogen, F14201), respectively, for 30 minutes at room temperature. The cells were then incubated in a calcium-free Krebs-Ringer-HEPES buffer (pH 7.4) additionally for 30 minutes for de-esterification of the dye. Images were captured in real time using an LSM980 confocal microscope (Zeiss, Oberkochen, Germany).
In addition, it was investigated whether intracellular calcium was released from the ER and imported into the mitochondria in response to oxLDL. Specifically, it was confirmed that, when the HUVECs were treated with oxLDL along with the Rhod-2 dye, which is a marker of mitochondrial calcium, mitochondrial calcium level was increased. In contrast, when HUVECs were pretreated with xestospongin C, which is an IP3R antagonist, and then treated with oxLDL, there was no increase in the mitochondrial calcium level (FIG. 1D). This means that the oxLDL-induced increase in mitochondrial calcium is derived from the endoplasmic reticulum (ER).
Furthermore, in order to investigate whether change in the physical coupling between the ER and mitochondria affects communications between cell organelles, Ca^2+ transport from the ER to mitochondria was examined. […]

C[C@H]1COC2=C1C(=O)C(=O)c1c2ccc2c1CCCC2(C)C [CTS, Cryptotanshinone]
number of dots closer than 40 nm (ER-mitochondrial distance) (HUVECs [1]): 37%
decrease of expression of autophagy and smooth muscle cell proliferation markers (p62, LC3B-II and α-SMA): approximately 40%
EC50 (HYOU1): ~1 µM
body weight [2]: did not affect

C1CCC[C@H]2CCCN3CC[C@@H](CCCCCC[C@@H]4CCCN5CC[C@@H](CC1)O[C@@H]45)O[C@@H]23 [xestospongin C]
mitochondrial calcium level (Rhod-2) (HUVECs [3]): no increase
